One block for each compound: values may come before it.
What was measured:
[1] = system: human iPSC-CMs; assay: Caspase 3/7 cleavage; assay type: cell-based; settings: for maximal attenuation of caspase 3/7 cleavage: 23 µM sunitinib 24 h
[2] = system: human iPSC-CMs; assay: GSH oxidation; assay type: cell-based
[3] = system: human iPSC-CMs; assay: Microelectrode array; assay type: cell-based; settings: MEA; for change of beat rate from baseline: up to 2 mM
[4] = system: human iPSC-CMs; assay: ATP depletion; assay type: cell-based; settings: for attenuation of sunitinib-mediated ATP depletion: 3 h pretreatment with 1 or 2 mM, then 8 to 31 µM sunitinib for 24 h; for TC50 based on dose–response data for ATP depletion: human iPSC-CMs, 24 h treatment; for depletion of ATP: 31 µM sunitinib
[5] = system: pACC-S79, pAMPK-T172; assay: Western blot of AMPK/ACC signaling in iCell cardiomyocytes; assay type: cell-based, human; settings: iPSC-CMs; for phosphorylation status of AMPKα-Thr172 and ACC-Ser79: 1 or 2 mM for 3 h
[6] = system: human iPSC-CMs; assay: LDH release in iCell cardiomyocytes; assay type: cell-based
[7] = biological target: Nav1.5 channel (Homo sapiens, UniProt Q14524); assay: PatchXpress Nav1.5 channel assay in CHL-Nav1.5 cells; assay type: cell-based; settings: read-out: IC50 of Nav1.5 channel inhibition
Nav1.5 channel, sequence (Q14524 whole entry): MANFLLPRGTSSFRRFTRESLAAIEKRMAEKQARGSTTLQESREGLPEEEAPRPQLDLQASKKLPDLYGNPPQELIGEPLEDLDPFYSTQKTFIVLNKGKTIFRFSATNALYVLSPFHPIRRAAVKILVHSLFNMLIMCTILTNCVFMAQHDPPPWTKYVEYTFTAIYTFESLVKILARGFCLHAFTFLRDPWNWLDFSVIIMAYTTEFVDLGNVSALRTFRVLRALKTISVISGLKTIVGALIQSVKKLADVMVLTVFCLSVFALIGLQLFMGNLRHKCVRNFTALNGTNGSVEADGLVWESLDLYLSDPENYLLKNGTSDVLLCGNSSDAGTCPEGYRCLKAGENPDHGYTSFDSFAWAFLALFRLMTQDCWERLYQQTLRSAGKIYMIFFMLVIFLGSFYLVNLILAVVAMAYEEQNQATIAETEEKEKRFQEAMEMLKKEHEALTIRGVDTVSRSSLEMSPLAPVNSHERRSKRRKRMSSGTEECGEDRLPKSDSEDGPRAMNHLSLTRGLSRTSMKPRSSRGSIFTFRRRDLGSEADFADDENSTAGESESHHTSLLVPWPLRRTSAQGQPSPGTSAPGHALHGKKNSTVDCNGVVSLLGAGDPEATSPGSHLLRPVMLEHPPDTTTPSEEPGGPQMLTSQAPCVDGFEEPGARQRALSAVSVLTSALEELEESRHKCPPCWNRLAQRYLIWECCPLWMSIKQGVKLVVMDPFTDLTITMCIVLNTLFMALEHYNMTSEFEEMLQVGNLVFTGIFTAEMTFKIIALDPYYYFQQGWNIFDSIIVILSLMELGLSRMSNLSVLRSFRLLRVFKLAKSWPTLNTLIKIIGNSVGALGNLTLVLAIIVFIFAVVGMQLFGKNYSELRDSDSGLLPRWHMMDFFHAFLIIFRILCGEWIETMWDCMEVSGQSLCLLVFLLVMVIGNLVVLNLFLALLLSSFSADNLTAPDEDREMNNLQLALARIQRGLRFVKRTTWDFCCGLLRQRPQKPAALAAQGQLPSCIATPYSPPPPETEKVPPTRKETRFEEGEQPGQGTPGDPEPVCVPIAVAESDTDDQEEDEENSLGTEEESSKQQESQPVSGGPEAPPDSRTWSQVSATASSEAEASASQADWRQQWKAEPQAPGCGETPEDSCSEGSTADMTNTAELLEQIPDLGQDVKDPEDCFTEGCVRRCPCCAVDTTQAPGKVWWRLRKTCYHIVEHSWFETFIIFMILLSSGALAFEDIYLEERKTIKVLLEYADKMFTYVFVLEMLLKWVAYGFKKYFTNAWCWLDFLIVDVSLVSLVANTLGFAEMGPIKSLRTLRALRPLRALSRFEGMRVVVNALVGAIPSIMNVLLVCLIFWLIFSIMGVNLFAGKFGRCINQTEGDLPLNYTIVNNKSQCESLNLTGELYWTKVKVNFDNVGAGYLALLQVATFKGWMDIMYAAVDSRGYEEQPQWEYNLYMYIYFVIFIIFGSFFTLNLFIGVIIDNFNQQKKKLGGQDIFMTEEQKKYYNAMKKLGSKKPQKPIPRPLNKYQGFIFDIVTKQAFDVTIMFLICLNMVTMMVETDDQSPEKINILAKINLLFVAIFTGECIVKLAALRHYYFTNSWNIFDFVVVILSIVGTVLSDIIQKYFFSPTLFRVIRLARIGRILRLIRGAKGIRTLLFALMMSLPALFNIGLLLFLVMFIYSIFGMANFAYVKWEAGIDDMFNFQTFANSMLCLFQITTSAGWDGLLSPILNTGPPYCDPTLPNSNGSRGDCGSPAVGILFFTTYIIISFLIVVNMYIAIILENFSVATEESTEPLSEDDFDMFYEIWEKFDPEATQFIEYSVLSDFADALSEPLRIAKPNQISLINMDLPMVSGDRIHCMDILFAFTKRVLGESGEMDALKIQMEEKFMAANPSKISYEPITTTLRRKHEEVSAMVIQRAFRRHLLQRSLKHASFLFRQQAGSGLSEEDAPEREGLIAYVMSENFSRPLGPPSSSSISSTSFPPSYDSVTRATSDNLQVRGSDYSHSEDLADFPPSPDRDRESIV

[8] = system: human iPSC-CMs; assay: Cytotoxicity dose response; assay type: cell-based; settings: for concentration without cytotoxicity (no ATP depletion or LDH release): 4 to 250 µM tested, 24 h
[9] = biological target: AMPK-alpha1 (Homo sapiens, UniProt Q13131); assay: KINOMEscan; assay type: binding; settings: read-out: % Inhibition AMBIT, AMP_K-alpha1
[10] = biological target: PIM2 (Homo sapiens, UniProt Q9P1W9); assay: KINOMEscan; assay type: binding; settings: read-out: % Inhibition AMBIT, PIM2
[11] = biological target: ERBB4 (Homo sapiens, UniProt Q15303); assay: KINOMEscan; assay type: binding; settings: read-out: % Inhibition AMBIT, ERBB4
[12] = biological target: FLT1 (Homo sapiens, UniProt P17948); assay: KINOMEscan; assay type: binding; settings: read-out: % Inhibition AMBIT, FLT1
[13] = biological target: ROCK2 (Homo sapiens, UniProt O75116); assay: KINOMEscan; assay type: binding; settings: read-out: % Inhibition AMBIT, ROCK2
[14] = biological target: AURORA C KINASE (Homo sapiens, UniProt Q9UQB9); assay: KINOMEscan; assay type: binding; settings: read-out: % Inhibition AMBIT, AURORA C KINASE
[15] = biological target: STK11 (Homo sapiens, UniProt Q15831); assay: KINOMEscan; assay type: binding; settings: read-out: % Inhibition AMBIT, STK11
[16] = biological target: PLK3 (Homo sapiens, UniProt Q9H4B4); assay: KINOMEscan; assay type: binding; settings: read-out: % Inhibition AMBIT, PLK3
[17] = biological target: RPS6KA1 (Kin. Dom.1) (Homo sapiens, UniProt Q15418); assay: KINOMEscan; assay type: binding; settings: read-out: % Inhibition AMBIT, RPS6KA1 (Kin. Dom.1)
[18] = biological target: CDK7 (Homo sapiens, UniProt P50613); assay: KINOMEscan; assay type: binding; settings: read-out: % Inhibition AMBIT, CDK7
[19] = biological target: GSK3A (Homo sapiens, UniProt P49840); assay: KINOMEscan; assay type: binding; settings: read-out: % Inhibition AMBIT, GSK3A
[20] = biological target: RPS6KA6 (Kin. Dom.1) (Homo sapiens, UniProt Q9UK32); assay: KINOMEscan; assay type: binding; settings: read-out: % Inhibition AMBIT, RPS6KA6 (Kin. Dom.1)
[21] = biological target: PDGFR-alpha (Homo sapiens, UniProt P16234); assay: KINOMEscan; assay type: binding; settings: read-out: % Inhibition AMBIT, PDGFR-alpha
[22] = system: 317 kinases; settings: at 0.1 µM; ref Karaman et al., 2008; cited from earlier work
[23] = biological target: PDGFR-beta (Homo sapiens, UniProt P09619); assay: KINOMEscan; assay type: binding; settings: read-out: % Inhibition AMBIT, PDGFR-beta
[24] = biological target: RPS6KA4 (Kin. Dom.2) (Homo sapiens, UniProt O75676); assay: KINOMEscan; assay type: binding; settings: read-out: % Inhibition AMBIT, RPS6KA4 (Kin. Dom.2)
[25] = biological target: GSK3B (Homo sapiens, UniProt P49841); assay: KINOMEscan; assay type: binding; settings: read-out: % Inhibition AMBIT, GSK3B
GSK3B, sequence (P49841 whole entry): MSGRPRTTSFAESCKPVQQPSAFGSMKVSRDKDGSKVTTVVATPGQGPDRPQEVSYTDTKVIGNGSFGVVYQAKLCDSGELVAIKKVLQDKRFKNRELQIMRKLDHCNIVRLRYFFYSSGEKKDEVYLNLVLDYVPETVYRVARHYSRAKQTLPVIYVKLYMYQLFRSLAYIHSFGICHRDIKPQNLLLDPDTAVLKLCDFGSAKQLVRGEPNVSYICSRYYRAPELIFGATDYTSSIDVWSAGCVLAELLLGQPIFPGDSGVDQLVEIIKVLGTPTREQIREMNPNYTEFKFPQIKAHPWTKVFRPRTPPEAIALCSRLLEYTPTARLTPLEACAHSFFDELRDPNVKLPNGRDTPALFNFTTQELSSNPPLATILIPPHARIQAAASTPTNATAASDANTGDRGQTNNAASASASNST

[26] = biological target: MAPK/ERK2 (Homo sapiens, UniProt P28482); assay: KINOMEscan; assay type: binding; settings: read-out: % Inhibition AMBIT, MAPK/ERK2
MAPK/ERK2, sequence (P28482 whole entry): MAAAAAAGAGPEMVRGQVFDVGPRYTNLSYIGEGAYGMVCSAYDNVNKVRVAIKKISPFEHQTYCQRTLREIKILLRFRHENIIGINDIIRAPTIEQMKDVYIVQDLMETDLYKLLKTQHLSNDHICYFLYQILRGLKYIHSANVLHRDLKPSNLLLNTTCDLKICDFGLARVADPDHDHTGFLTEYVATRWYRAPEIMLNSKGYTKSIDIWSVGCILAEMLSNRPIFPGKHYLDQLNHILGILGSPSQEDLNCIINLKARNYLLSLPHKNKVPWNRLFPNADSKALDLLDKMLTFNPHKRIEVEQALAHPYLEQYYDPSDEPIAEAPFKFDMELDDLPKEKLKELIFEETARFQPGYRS

[27] = biological target: RPS6KA4 (Kin. Dom.1) (Homo sapiens, UniProt O75676); assay: KINOMEscan; assay type: binding; settings: read-out: % Inhibition AMBIT, RPS6KA4 (Kin. Dom.1)
[28] = biological target: AURORA A KINASE (Homo sapiens, UniProt O14965); assay: KINOMEscan; assay type: binding; settings: read-out: % Inhibition AMBIT, AURORA A KINASE
[29] = biological target: RPS6KA6 (Kin. Dom.2) (Homo sapiens, UniProt Q9UK32); assay: KINOMEscan; assay type: binding; settings: read-out: % Inhibition AMBIT, RPS6KA6 (Kin. Dom.2)
RPS6KA6 (Kin. Dom.2), sequence (Q9UK32 426-683 limits assumed): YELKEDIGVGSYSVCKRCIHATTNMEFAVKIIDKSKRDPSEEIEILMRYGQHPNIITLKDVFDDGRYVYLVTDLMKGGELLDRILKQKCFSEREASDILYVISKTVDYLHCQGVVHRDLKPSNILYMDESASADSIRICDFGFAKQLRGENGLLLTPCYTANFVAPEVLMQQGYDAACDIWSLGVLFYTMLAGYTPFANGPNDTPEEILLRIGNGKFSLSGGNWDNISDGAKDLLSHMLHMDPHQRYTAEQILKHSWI

[30] = biological target: BRAF (Homo sapiens, UniProt P15056); assay: KINOMEscan; assay type: binding; settings: read-out: % Inhibition AMBIT, BRAF
[31] = biological target: MAP3K5 (ASK1) (Homo sapiens, UniProt Q99683); assay: KINOMEscan; assay type: binding; settings: read-out: % Inhibition AMBIT, MAP3K5 (ASK1)
MAP3K5 (ASK1), sequence (Q99683 whole entry): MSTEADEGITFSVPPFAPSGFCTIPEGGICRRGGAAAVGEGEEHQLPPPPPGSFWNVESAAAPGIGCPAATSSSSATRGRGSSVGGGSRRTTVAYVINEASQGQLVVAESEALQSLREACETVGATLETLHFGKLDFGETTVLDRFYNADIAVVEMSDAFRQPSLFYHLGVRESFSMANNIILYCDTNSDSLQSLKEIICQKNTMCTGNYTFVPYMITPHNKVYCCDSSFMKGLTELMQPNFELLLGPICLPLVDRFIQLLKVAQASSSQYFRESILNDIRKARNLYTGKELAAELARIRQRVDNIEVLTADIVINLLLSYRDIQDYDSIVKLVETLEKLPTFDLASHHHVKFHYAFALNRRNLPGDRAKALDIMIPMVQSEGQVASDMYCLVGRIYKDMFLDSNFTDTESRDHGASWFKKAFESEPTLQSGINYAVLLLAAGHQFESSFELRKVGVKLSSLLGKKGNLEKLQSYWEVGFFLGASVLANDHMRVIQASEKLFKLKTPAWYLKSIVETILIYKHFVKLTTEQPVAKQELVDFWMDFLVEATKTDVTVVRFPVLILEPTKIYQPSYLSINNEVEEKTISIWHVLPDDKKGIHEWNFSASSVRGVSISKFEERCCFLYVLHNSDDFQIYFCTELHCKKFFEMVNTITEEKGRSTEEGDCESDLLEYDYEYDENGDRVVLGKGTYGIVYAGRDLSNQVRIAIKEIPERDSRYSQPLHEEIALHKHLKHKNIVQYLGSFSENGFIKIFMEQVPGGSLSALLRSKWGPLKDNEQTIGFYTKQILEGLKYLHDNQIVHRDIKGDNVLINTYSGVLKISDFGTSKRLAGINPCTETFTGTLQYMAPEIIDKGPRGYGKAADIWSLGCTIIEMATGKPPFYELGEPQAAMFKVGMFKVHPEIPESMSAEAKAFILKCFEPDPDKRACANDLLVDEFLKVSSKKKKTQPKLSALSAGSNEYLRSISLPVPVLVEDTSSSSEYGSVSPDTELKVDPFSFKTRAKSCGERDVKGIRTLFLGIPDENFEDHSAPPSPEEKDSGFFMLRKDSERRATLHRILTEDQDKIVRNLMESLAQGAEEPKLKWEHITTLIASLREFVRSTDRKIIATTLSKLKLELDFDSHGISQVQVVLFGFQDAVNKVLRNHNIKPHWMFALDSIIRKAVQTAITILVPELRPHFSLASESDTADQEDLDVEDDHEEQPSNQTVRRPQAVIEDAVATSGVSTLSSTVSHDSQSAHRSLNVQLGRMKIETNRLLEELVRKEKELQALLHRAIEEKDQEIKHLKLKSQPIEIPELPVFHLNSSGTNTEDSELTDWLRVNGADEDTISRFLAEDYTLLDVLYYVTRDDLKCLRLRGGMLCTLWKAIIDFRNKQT

[32] = biological target: PIM1 (Homo sapiens, UniProt P11309); assay: KINOMEscan; assay type: binding; settings: read-out: % Inhibition AMBIT, PIM1
[33] = system: RSK1/2/4; assay: 10 µM AMBIT screen; assay type: binding
[34] = biological target: AURORA B KINASE (Homo sapiens, UniProt Q96GD4); assay: KINOMEscan; assay type: binding; settings: read-out: % Inhibition AMBIT, AURORA B KINASE
[35] = biological target: AKT3 (Homo sapiens, UniProt Q9Y243); assay: KINOMEscan; assay type: binding; settings: read-out: % Inhibition AMBIT, AKT3
[36] = biological target: DMPK (Homo sapiens, UniProt Q09013); assay: KINOMEscan; assay type: binding; settings: read-out: % Inhibition AMBIT, DMPK
[37] = biological target: ERBB2 (Homo sapiens, UniProt P04626); assay: KINOMEscan; assay type: binding; settings: read-out: % Inhibition AMBIT, ERBB2
[38] = biological target: PLK1 (Homo sapiens, UniProt P53350); assay: KINOMEscan; assay type: binding; settings: read-out: % Inhibition AMBIT, PLK1
[39] = biological target: FLT4 (Homo sapiens, UniProt P35916); assay: KINOMEscan; assay type: binding; settings: read-out: % Inhibition AMBIT, FLT4
[40] = biological target: PLK4 (Homo sapiens, UniProt O00444); assay: KINOMEscan; assay type: binding; settings: read-out: % Inhibition AMBIT, PLK4
[41] = biological target: AMPK-alpha2 (Homo sapiens, UniProt P54646); assay: KINOMEscan; assay type: binding; settings: read-out: % Inhibition AMBIT, AMPK-alpha2
[42] = biological target: RAF (Homo sapiens, UniProt P04049); assay: KINOMEscan; assay type: binding; settings: read-out: % Inhibition AMBIT, RAF
[43] = biological target: RPS6KA2 (Kin. Dom.1) (Homo sapiens, UniProt Q15349); assay: KINOMEscan; assay type: binding; settings: read-out: % Inhibition AMBIT, RPS6KA2 (Kin. Dom.1)
RPS6KA2 (Kin. Dom.1), sequence (Q15349 1-388 limits assumed): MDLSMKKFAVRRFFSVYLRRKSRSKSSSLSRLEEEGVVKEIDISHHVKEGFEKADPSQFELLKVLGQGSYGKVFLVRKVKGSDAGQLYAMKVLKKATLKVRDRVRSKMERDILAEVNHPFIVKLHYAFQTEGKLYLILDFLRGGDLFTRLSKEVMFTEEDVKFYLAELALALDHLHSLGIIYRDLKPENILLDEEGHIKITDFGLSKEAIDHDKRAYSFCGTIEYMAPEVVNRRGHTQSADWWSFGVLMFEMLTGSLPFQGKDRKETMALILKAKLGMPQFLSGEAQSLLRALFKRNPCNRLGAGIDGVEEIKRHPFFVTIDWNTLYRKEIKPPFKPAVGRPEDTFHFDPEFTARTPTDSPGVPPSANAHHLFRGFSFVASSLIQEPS

[44] = system: RSK1; settings: read-out: IC50 RSK1; kinase activity assay; ref Hasinoff et al., 2008; cited from earlier work
[45] = 31 µM sunitinib, 24 h, iPSC-CMs
[46] = 23 µM sunitinib, 24 h, iPSC-CMs

SMILES: NC(=O)c1ncn([C@@H]2O[C@H](CO)[C@@H](O)[C@H]2O)c1N [AICAR, aminoimidazole carboxamide ribonucleotide]
maximal attenuation of caspase 3/7 cleavage ([1]; 2 mM pretreatment 3 h): 108%
attenuation of oxidized GSH ([2]; 1 mM pretreatment 3 h, 31 µM sunitinib 24 h): 14%
change of beat rate from baseline [3]: ≤ 1%
attenuation of sunitinib-mediated ATP depletion [4]: Neither AICAR (Fig. 3A) nor metformin (Fig. 3E) attenuated
phosphorylation status of AMPKα-Thr172 and ACC-Ser79 [5]: activated AMPK signaling
reduction of LDH release ([6]; 1 mM pretreatment 3 h, 23 or 31 µM sunitinib 24 h): 80%

SMILES: COCCNCCCn1c(C(=O)CF)c(-c2ccc(C)cc2)c2c(N)ncnc21 [RSK FMK-MEA, fluoromethylketone methoxyethylamine]
IC50 [7]: 56.8 µM
concentration without cytotoxicity (no ATP depletion or LDH release) [8]: up to 62 µM
concentration without cytotoxicity (no ATP depletion or LDH release) ([8]; listed as RSK-FMK-MEA): below 250 µM
concentration with irregular (arrhythmic) beats ([3]; 15 min at each concentration): 3000 nM
amplitude of the Na+-peak ([3]; serially increasing additions): dose-dependent reduction in the amplitude of the Na^+-peak
fPDc (field-potential duration corrected by beat rate, Fridericia) ([3]; serially increasing additions): dose-dependent prolongation of fPDc
TC50 based on dose–response data for ATP depletion [4]: 250 µM

change of beat rate from baseline [3]: ≤ 1%
SMILES: CN(C)C(=N)N=C(N)N [metformin]
maximal attenuation of caspase 3/7 cleavage ([1]; 1 mM pretreatment 3 h): 107%
reduction in oxidation of GSH ([2]; 2 mM pretreatment 3 h, 23 µM sunitinib 24 h): 35%
attenuation of sunitinib-mediated ATP depletion [4]: Neither AICAR (Fig. 3A) nor metformin (Fig. 3E) attenuated
phosphorylation status of AMPKα-Thr172 and ACC-Ser79 [5]: activated AMPK signaling
maximal attenuation of LDH release ([6]; 1 mM pretreatment 3 h, 23 µM sunitinib 24 h): 90%

inhibition at 10 µM [9]: 100%
inhibition at 10 µM [10]: < 50%
inhibition at 10 µM [11]: < 50%
inhibition at 10 µM [12]: 100%
inhibition at 10 µM [13]: 97%
inhibition at 10 µM [14]: 100%
inhibition at 10 µM [15]: 100%
inhibition at 10 µM [16]: < 50%
inhibition at 10 µM [17]: 100%
inhibition at 10 µM [18]: 100%
inhibition at 10 µM [19]: < 50%
inhibition at 10 µM [20]: 97%
inhibition at 10 µM [21]: 100%
inhibition at 10 µM [23]: 100%
inhibition at 10 µM [24]: 99%
inhibition at 10 µM [25]: < 50%
inhibition at 10 µM [26]: < 50%
inhibition at 10 µM [27]: 100%
inhibition at 10 µM [28]: < 50%
inhibition at 10 µM [29]: < 50%
inhibition at 10 µM [30]: < 50%
inhibition at 10 µM [31]: < 50%
inhibition at 10 µM [32]: < 50%
inhibition at 10 µM [34]: 100%
inhibition at 10 µM [35]: < 50%
inhibition at 10 µM [36]: < 50%
inhibition at 10 µM [37]: < 50%
inhibition at 10 µM [38]: < 50%
inhibition at 10 µM [39]: 100%
inhibition at 10 µM [40]: 100%
inhibition at 10 µM [41]: 99%
inhibition at 10 µM [42]: < 50%
inhibition at 10 µM [43]: 100%
SMILES: CCN(CC)CCNC(=O)c1c(C)[nH]c(/C=C2\C(=O)Nc3ccc(F)cc32)c1C [sunitinib, Sunitinib]
cleavage of caspase 3/7 [1, 45]: ~100%
IC50 of cardiotoxicity (loss of cellular ATP, oxidized glutathione, apoptosis) [8]: low micromolar range
GSH oxidized compared to vehicle [2, 46]: 67%
oxidation of GSH [2, 45]: ~100%
number of kinases bound of the 317 kinases tested [22]: 57
share of the 317 kinases tested that were bound [22]: 18%
amplitude of the Na+-peak ([3]; serially increasing additions): dose-dependently reduced the amplitude of the Na^+-peak
ATP depleted compared to vehicle [4, 46]: greater than 60%
depletion of ATP ([4]; 24 h, iPSC-CMs): ~100%
depletion of ATP ([4]; by 4.5 h, iPSC-CMs (unpublished results)): 80%
TC50 based on dose–response data for ATP depletion [4]: 16.7 µM
inhibition of phosphorylation of AMPK's downstream target ACC-Ser79 ([5]; 15 µM for 2 h): inhibited AMPK
phosphorylation status of ACC-S79 ([5]; 15.6 µM, 2 h): decreased the phosphorylation status of ACC-S79
inhibition of RSK1/2/4 [33]: 100%
increase in LDH release compared to vehicle [6, 46]: 300%
release of LDH [6, 45]: ~100%
